From patent US10392389B2, “Heterocyclic compounds for the inhibition of PASK” (BioEnergenix, LLC, priority 2012, dated 2019)

molecular target: T1, PASK (Invitrogen) (Homo sapiens, UniProt Q96RG2); assay: PAS Kinase FRET Assay; type: biochemical; settings: PAS kinase TR-FRET assay (665 nm/615 nm); read-out: IC50 Kinase Domain
T1 construct: IC50 Kinase Domain; purchased Invitrogen
Excerpt: Biochemical Assay for hPASK Activity
The aim of the FRET assay is to determine the inhibition potential of test compounds on targeted kinase. This assay platform provides a homogenous screening method for measuring kinase activity by quantitating the amount of phospho-substrate in solution following a kinase reaction.
In the presence of kinase and ATP, the Ulight-peptide is phosphorylated and captured by an anti-phospho-substrate antibody, which brings the Eu chelate donor and Ulight acceptor dyes into close proximity. Upon excitation at 340 nm, the Eu chelate transfers its energy to the Ulight dye, resulting in a fluorescent light emission at 665 nm.
Titration of kinase at 1 mM ATP was achieved via the following protocol. After making serial three-fold dilutions of PASK (Invitrogen) in reaction buffer across the plate; 5 μl of kinase dilution and 5 μl substrate/ATP mix were added to the wells of the white Optiplate-384 (PerkinElmer). The contents of the plate were and incubated at RT for 1 h. The reaction was stopped by adding 5 μl of stop solution to each test well followed by mixing and incubation at RT for 10 minutes. 5 μl of detection mix (detection antibody diluted in detection buffer) was added; the contents of the plate were mixed and then incubated in the dark for 1 hour at RT. The signal was recorded at TR-FRET mode (665 nm/615 nm). The results were graphed to calculate the EC50.
Titration of ATP at the EC50 concentration of kinase to determine ATP Km,app. was performed using the following method. After making serial dilutions of ATP (Invitrogen), 5 μl of ATP dilution and 5 μl substrate/kinase mix were added to the wells of the white Optiplate-384 (PerkinElmer). The contents of the plate were and incubated at RT for 1 h. The reaction was stopped by adding 5 μl of stop solution to each test well followed by mixing and incubation at RT for 10 minutes. 5 μl of detection mix (detection antibody diluted in detection buffer) was added; the contents of the plate were mixed and then incubated in the dark for 1 hour at RT. The signal was recorded at TR-FRET mode (665 nm/615 nm). The results were graphed to calculate the EC50 as the ATP Km,app.
Compound screening was done via the following method. 10 mM stock solution of test compound in DMSO was prepared by dissolving test compound in DMSO at RT for 1 hour, and then sonicating at 100% output for 8 minutes. If compound is not soluble under this condition, it was diluted to 3 mM. Kinase reaction buffer was prepared containing 10 mM MgCl2, 50 mM HEPES, 1 mM EGTA, 0.01% TWEEN-20, 2 mM DTT. Serial dilutions of the test compounds were prepared at 4× final assay concentrations using Freedom EVO200® dispensing system as follows: 12×10^−5 M, 4×10^−5 M, 1.33×10^−5 M, 4.44×10^−6 M, 1.48×10^−6 M, 4.92×10^−7 M, 1.65×10^−7 M, […], 1.82×10^−8M, 6.09×10^−9, 2.03×10^−9 M. Test compounds (2.5 μl at 4× the final assay concentration) was added to wells using Freedom EVO200® dispensing system. As a positive control, 2.5 μl of positive compound was added to assay wells, and 2.5 μl of DMSO to assay wells as vehicle control. Kinase solution was prepared in reaction buffer at 2× final assay concentration. Kinase solution (5 μl) was added to each well of the assay plate. The substrate and ATP solution was prepared in kinase reaction buffer at 4× final assay concentration. The kinase reaction was started by adding 2.5 μl of substrate+ATP mix solution to each well of the assay plate. The plate is mixed on a plate shaker; then covered and allowed to react for 2 hours in the dark at 25° C. without shaking. The reaction was stopped by adding 5 μl of stop solution to each test well followed by mixing and incubation at RT for 10 minutes in the dark. 5 μl of detection mix (detection antibody diluted in detection buffer) was added; the contents of the plate were mixed and then incubated in the dark for 1 hour at RT. The signal was recorded at TR-FRET mode (665 nm/615 nm).

T1 sequence (Q96RG2 999-1251 limits assumed): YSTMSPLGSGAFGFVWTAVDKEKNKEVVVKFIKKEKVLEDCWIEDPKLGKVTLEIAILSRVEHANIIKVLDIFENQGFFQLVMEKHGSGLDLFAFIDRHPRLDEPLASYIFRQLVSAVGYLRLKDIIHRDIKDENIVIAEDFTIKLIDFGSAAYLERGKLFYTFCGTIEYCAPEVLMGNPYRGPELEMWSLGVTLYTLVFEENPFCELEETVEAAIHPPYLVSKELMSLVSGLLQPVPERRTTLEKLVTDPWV

IC50	Structure (SMILES)
≤ 10 µM	CCn1ncc2cc(-c3cc(=O)n4ncc(-c5nc(C)cs5)c4[nH]3)ccc21 [Example 25, 5-(1-ethyl-1H-indazol-5-yl)-3-(4-methyl-1,3-thiazol-2-yl)-4H,7H-pyrazolo[1,5-a]pyrimidin-7-one]
≤ 10 µM	COc1cc(-c2cc(=O)n3ncc(-c4nccs4)c3[nH]2)ccc1Cl [Example 39, 5-(4-chloro-3-methoxyphenyl)-3-(thiazol-2-yl)-4H,7H-pyrazolo[1,5-a]pyrimidin-7-one]
≤ 10 µM	CCn1ncc2ccc(-c3cc(=O)n4ncc(-c5ncc(C)o5)c4[nH]3)cc21 [Example 112, 5-(1-ethyl-1H-indazol-6-yl)-3-(5-methyloxazol-2-yl)pyrazolo[1,5-a]pyrimidin-7(4H)-one]
≤ 10 µM	O=c1cc(-c2ccc3occc3c2)[nH]c2c(-c3nccs3)cnn12 [Example 44, 5-(benzofuran-5-yl)-3-(thiazol-2-yl)pyrazolo[1,5-a]pyrimidin-7(4H)-one]
≤ 10 µM	CCn1ncc2cc(-c3cc(=O)n4ncc(-c5nnc(C)o5)c4[nH]3)ccc21 [Example 31, 5-(1-ethyl-1H-indazol-5-yl)-3-(5-methyl-1,3,4-oxadiazol-2-yl)-4H,7H-pyrazolo[1,5-a]pyrimidin-7-one]
≤ 10 µM	CCc1coc(-c2cnn3c(=O)cc(-c4ccc5c(cnn5CC)c4)[nH]c23)n1 [Example 28, 5-(1-ethyl-1H-indazol-5-yl)-3-(4-ethyloxazol-2-yl)pyrazolo[1,5-a]pyrimidin-7(4H)-one]
≤ 10 µM	Cc1noc(-c2c(C)nn3c(=O)cc(-c4ccc(Cl)cc4)[nH]c23)n1 [Example 8, 5-(4-chlorophenyl)-2-methyl-3-(3-methyl-1,2,4-oxadiazol-5-yl)-4H,7H-pyrazolo[1,5-a]pyrimidin-7-one]
≤ 10 µM	Cc1csc(-c2cnn3c(=O)cc(-c4ccc(Cl)c(Cl)c4)[nH]c23)n1 [Example 101, 5-(3,4-dichlorophenyl)-3-(4-methylthiazol-2-yl)pyrazolo[1,5-a]pyrimidin-7(4H)-one]
≤ 10 µM	CCCc1nn2c(=O)cc(-c3ccc4c(cnn4CC)c3)[nH]c2c1-c1nc(C)no1 [Example 116, 5-(1-ethyl-1H-indazol-5-yl)-3-(3-methyl-1,2,4-oxadiazol-5-yl)-2-propyl-4H,7H-pyrazolo[1,5-a]pyrimidin-7-one]
≤ 10 µM	CCn1ncc2cc(-c3cc(=O)n4ncc(-c5ccnn5C)c4[nH]3)ccc21 [Example 53, 5-(1-ethyl-1H-indazol-5-yl)-3-(1-methyl-1H-pyrazol-5-yl)pyrazolo[1,5-a]pyrimidin-7(4H)-one]
≤ 10 µM	CCc1nn2c(=O)cc(-c3ccc4c(cnn4CC)c3)[nH]c2c1-c1nc(C)no1 [Example 114, 2-ethyl-5-(1-ethyl-1H-indazol-5-yl)-3-(3-methyl-1,2,4-oxadiazol-5-yl)pyrazolo[1,5-a]pyrimidin-7(4H)-one]
> 10 µM	O=c1cc(-c2ccc(Cl)cn2)[nH]c2c(-c3ncco3)cnn12 [Example 113, 5-(5-chloropyridin-2-yl)-3-(1,3-oxazol-2-yl)-4H,7H-pyrazolo[1,5-a]pyrimidin-7-one]
≤ 10 µM	CCc1noc2cc(-c3cc(=O)n4ncc(C(N)=O)c4[nH]3)ccc12 [Example 123, 5-(3-ethylbenzo[d]isoxazol-6-yl)-7-oxo-4,7-dihydropyrazolo[1,5-a]pyrimidine-3-carboxamide]
≤ 10 µM	CCn1ncc2cc(-c3cc(=O)n4ncc(-c5nc6ccccc6s5)c4[nH]3)ccc21 [Example 40, 3-(benzo[d]thiazol-2-yl)-5-(1-ethyl-1H-indazol-5-yl)pyrazolo[1,5-a]pyrimidin-7(4H)-one]
≤ 10 µM	Cc1cnc(-c2cnn3c(=O)cc(-c4ccc5c(C)noc5c4)[nH]c23)o1 [Example 119, 5-(3-Methylbenzo[d]isoxazol-6-yl)-3-(5-methyloxazol-2-yl)pyrazolo[1,5-a]pyrimidin-7(4H)-one]
≤ 10 µM	CC(C)Oc1cc(-c2cc(=O)n3ncc(-c4ccnn4C)c3[nH]2)ccc1Cl [Example 76, 5-(4-chloro-3-isopropoxyphenyl)-3-(1-methyl-1H-pyrazol-5-yl)pyrazolo[1,5-a]pyrimidin-7(4H)-one]
≤ 10 µM	CCc1noc2cc(-c3cc(=O)n4ncc(-c5ncco5)c4[nH]3)ccc12 [Example 120, 5-(3-Ethylbenzo[d]isoxazol-6-yl)-3-(oxazol-2-yl)pyrazolo[1,5-a]pyrimidin-7(4H)-one]
≤ 10 µM	CCOc1cc(-c2cc(=O)n3ncc(-c4ncc(CC)o4)c3[nH]2)ccc1Cl [Example 35, 5-(4-chloro-3-ethoxyphenyl)-3-(5-ethyloxazol-2-yl)-4H,7H-pyrazolo[1,5-a]pyrimidin-7-one]
≤ 10 µM	Cc1noc(-c2cnn3c(=O)cc(-c4ccc(Cl)cc4)[nH]c23)n1 [Example 7, 5-(4-chlorophenyl)-3-(3-methyl-1,2,4-oxadiazol-5-yl)-4H,7H-pyrazolo[1,5-a]pyrimidin-7-one]
≤ 10 µM	CCn1ncc2cc(-c3cc(=O)n4nc(C)c(-c5nc(C)no5)c4[nH]3)ccc21 [Example 115, 5-(1-ethyl-1H-indazol-5-yl)-2-methyl-3-(3-methyl-1,2,4-oxadiazol-5-yl)-4H,7H-pyrazolo[1,5-a]pyrimidin-7-one]
≤ 10 µM	COc1cc(-c2cc(=O)n3ncc(-c4nc5ccccc5s4)c3[nH]2)ccc1Cl [Example 41, 3-(benzo[d]thiazol-2-yl)-5-(4-chloro-3-methoxyphenyl)pyrazolo[1,5-a]pyrimidin-7(4H)-one]
≤ 10 µM	CCOc1cc(-c2cc(=O)n3ncc(-c4ncc(C)o4)c3[nH]2)ccc1Cl [Example 46, 5-(4-chloro-3-ethoxyphenyl)-3-(5-methyloxazol-2-yl)pyrazolo[1,5-a]pyrimidin-7(4H)-one]
≤ 10 µM	Cc1coc(-c2cnn3c(=O)cc(-c4ccc5[nH]nnc5c4)[nH]c23)n1 [Example 11, 5-(1H-1,2,3-benzotriazol-5-yl)-3-(4-methyl-1,3-oxazol-2-yl)-4H,7H-pyrazolo[1,5-a]pyrimidin-7-one]
≤ 10 µM	Cc1csc(-c2cnn3c(=O)cc(-c4ccc5c(cnn5C)c4)[nH]c23)n1 [Example 72, 5-(1-methyl-1H-indazol-5-yl)-3-(4-methylthiazol-2-yl)pyrazolo[1,5-a]pyrimidin-7(4H)-one]
≤ 10 µM	Cc1noc(-c2cnn3c(=O)cc(-c4ccc(Cl)c(OCC(F)(F)F)c4)[nH]c23)n1 [Example 92, 5-[4-chloro-3-(2,2,2-trifluoroethoxy)phenyl]-3-(3-methyl-1,2,4-oxadiazol-5-yl)-4H,7H-pyrazolo[1,5-a]pyrimidin-7-one]
≤ 10 µM	Cc1cnc(-c2cnn3c(=O)cc(-c4ccc(Cl)cc4)[nH]c23)s1 [Example 106, 5-(4-Chlorophenyl)-3-(5-methylthiazol-2-yl)pyrazolo[1,5-a]pyrimidin-7(4H)-one]
≤ 10 µM	CCn1ncc2cc(-c3cc(=O)n4nc(C)c(-c5nc(C)co5)c4[nH]3)ccc21 [Example 42, 5-(1-ethyl-1H-indazol-5-yl)-2-methyl-3-(4-methyloxazol-2-yl)-4H,7H-pyrazolo[1,5-a]pyrimidin-7-one]
≤ 10 µM	Cc1cnc(-c2cnn3c(=O)cc(-c4ccc5c(cnn5C)c4)[nH]c23)o1 [Example 107, 5-(1-Methyl-1H-indazol-5-yl)-3-(5-methyloxazol-2-yl)pyrazolo[1,5-a]pyrimidin-7(4H)-one]
≤ 10 µM	Cc1noc2cc(-c3cc(=O)n4ncc(-c5ncco5)c4[nH]3)ccc12 [Example 118, 5-(3-methylbenzo[d]isoxazol-6-yl)-3-(oxazol-2-yl)pyrazolo[1,5-a]pyrimidin-7(4H)-one]
